Values quoted from earlier work in patent publication EP0584511B1, “PROCESS FOR THE PREPARATION OF A COMPOSITE TEXTILE MATERIAL” (ALCANTARA S.p.A., priority 1992, dated 1994).

Conditions: substituted aromatic amines proposed as replacement extenders; background statement

| Compound | classification at Ames's test |
| --- | --- |
| Cc1cc(Cc2cc(C)c(N)c(C(C)C)c2)cc(C(C)C)c1N [4-4' methylene-bis-(2 isopropyl-6 methylaniline)] | non cancerogenic |
| CCc1cc(Cc2cc(CC)c(N)c(CC)c2Cl)c(Cl)c(CC)c1N [4-4' methylene-bis-(3-chloro-2,6-diethylaniline)] | non cancerogenic |
| diethyltoluene diamine | non cancerogenic |
